Legend:
[1] = Luminol dependent chemiluminescence activated by SIN-1 (peroxynitrite generator); assay type: biochemical
Source text: (§1) We studied the effect of Green tea leaf extract on peroxynitrite. This study is based on a simple chemical interaction of peroxynitrite (OONO-) and luminol which produces blue light upon oxidation. […] In addition peroxynitrite itself was used directly with a fast injection-mixing system to ascertain if there might be differences between it and the peroxynitrite generating system (SIN-1) which mimics the natural production of (OONO-). […] Upon the stimulation of inflammation and/or infection, macrophages and neutrophils can be stimulated to produce large amounts of peroxynitrite.
(§2) The antioxidant effect of green tea and some of its constituents against luminol dependent chemiluminesence activated by peroxynitrite. Since peroxynitrite oxidizes luminol to an intermediate that produces light, antioxidants will inhibit this blue light by interfering with the oxidation of the luminol. In addition, we used SIN-1 which produces both superoxide and nitric oxide which combine to produce peroxynitrite. […] The purpose of this study was to measure the antioxidant activity of green tea extract and some of its prominent polyphenols. This is accomplished by using the antioxidants to oppose the oxidation of luminol by peroxynitrite thereby inhibiting the production of blue light.
(§3) Three sydnonimine congeners are known to produce both nitric oxide and superoxide and then combine to produce peroxynitrite (ONOO). […] It was kept on ice and maintained its activity for several hours of the experiment. Peroxynitrite (approx 50 mM) was diluted 1/1000 with water. The original solution is supplied in 0.3M NaOH and this stabilizes the compound. Once diluted it must be kept on ice and used quickly, especially after dilution. When the diluted OONO- is injected into the PBS buffer at pH=7.4. […] However, the slower reaction with SIN-1 gives an opportunity to dissect the reaction into its component parts, since rapid reaction and injection/mixing are not so crucial.
(§4) The luminol was obtained from Sigma Chemical Company, St. Louis, Mo. It was dissolved first in one ml DMSO and then diluted to produce a stock solution (10^-4M) in 0.1 M Phosphate buffered saline at a pH of 7.4.
Green tea powdered extract was purchased from Pharmanex, Simi Valley, California. 250mg was dissolved in 10ml of phosphate buffered saline (PBS) with pH of 7.4 and used as a stock solution. Dilutions were made using PBS and samples from this original stock solution were diluted every ten fold from one to a million (six samples).
A control solution was also used to provide a reference to the light stimulation produced by the combination of SIN-1 and luminol.
(§5) The luminometer tube was placed in a Berthold model LB9505C tube-6 channel luminometer with the temperature control set at 37°C and the light reaction was measured for 20 minutes. Peroxynitrite reacts with luminol directly and was injected using an essentially pressure-independent injection device, which injects 1/50 of it's total volume (2500 µm) of a gas tight syringe, made by the Hamilton Co. (pat. # 3161323) in Whittier, CA, to produce a blue light at 425 nm, which corresponds to the most sensitive detection range of the photomultipliers for this luminometer. The injection device was linked to a gastight 2500 microliter syringe with a fixed needle of 5.2 cm. This length of needle was necessary to penetrate the septum of the ports of the 6 channel Berthold Luminometer and to extend into the tube far enough to produce reproducible mixing necessary because of the short half-life of peroxynitrite. In Fig. 7, repetitive injections of peroxynitrite are shown giving the light generated over a one minute time period which was acquired, plotted and integrated with an IBM clone computer running KINB software. In the case of SIN-1, the ingredients were mixed prior to assay, with SIN-1 added fast. The assay is reported as counts per minute integrated over the 20 minute time period. […]

[2] = Luminol dependent chemiluminescence activated by directly injected peroxynitrite; assay type: biochemical; conditions: for inhibition of peroxynitrite-based luminol light: 1000 fold dilution; for relative antioxidant activity among the catechins tested: peroxynitrite or SIN-1 based light
Experimental: The end product of purine metabolism in humans is uric acid. This substance is an excellent antioxidant that can interact directly with nearby peroxynitrite. Figure 2 is a graph depicting interaction of peroxynitrite and uric acid and the inhibition of peroxynitrite based chemiluminescence. Figure 2 illustrates the oxidative reaction of peroxynitrite an luminol to produce light (chemiluminescence) and the interference with light which is produced by uric acid at a concentration of 10 µM. […] Allantoin is the end product of purine metabolism in animals except for man, great apes and some dalmatian dogs. […] Such an oxidant occurs most likely through peroxynitrite or possibly hypochlorite.
as §1, §2, §3, §4
as §5, with “software.” for “software. In the case of SIN-1, the ingredients were mixed prior to assay, with SIN-1 added fast. The assay is reported as counts per minute integrated over the 20 minute time period.”

[3] = cited from earlier work; for uricosuric effect / uric acid levels in the blood: normal, hyperuricemic and gouty humans; for abilities to increase uric acid levels: nucleotides compared to nucleosides; for increasing blood uric acid levels: nucleotides compared with DNA and RNA
[4] = administered in large amounts (95 mg/kg); oxidized to 2,8 dihydroxyadenine; cited from earlier work
[5] = test system: allergic encephalomyelitis (EAE); conditions: mice, 500 mg/kg four times a day, started before or after clinical symptoms of EAE; cited from earlier work
[6] = cited from earlier work
[7] = 1:1000 dilution (stock 0.45 mMolar)
[8] = 1:100 dilution from stock at 0.45 mMolar

Which “inhibition of SIN-1 activated luminol light” value [1, 7] does the source give for `Oc1cc(O)c2c(c1)OC(c1ccc(O)c(O)c1)C(O)C2` (racemic) [racemic catechin, (±) catechin] here?
The value was 50%.

And the “inhibition of SIN-1 activated luminol light” value ([1]; 1:1000 dilution (stock 0.45 mMolar), listed as Racemic catechin)?
The value was “about 50%”.

And the “inhibition of SIN-1 activated luminol light” value ([1]; 10 fold dilutions after 1:1000)?
Its value is “little inhibition”.

What about the “inhibition of peroxynitrite-based light” value ([2]; 1:10,000 dilution) of the same compound?
Its value is 50%.

And the “inhibition of peroxynitrite-based light” value ([2]; 1:10,000 dilution, listed as Racemic catechin)?
The value was “about 50%”.

What about the “inhibition of peroxynitrite-based light” value ([2]; 1:100,000 dilution) of the same compound?
Its value is 50%.

And the “inhibition of peroxynitrite-based luminol light” value [2]?
The value was “about 50%”.

And the “relative antioxidant activity among the catechins tested” value [2]?
The value was “very active”.

Which results are given for `Nc1ncnc2c1ncn2[C@@H]1O[C@H](COP(=O)(O)O)[C@@H](O)[C@H]1O` [AMP]?
uricosuric effect / uric acid levels in the blood [3]: raised uric acid levels in the blood; abilities to increase uric acid levels [3]: equivalent; increasing blood uric acid levels [3]: more effective than DNA and RNA

Which results are given for `Nc1nc2c(ncn2[C@@H]2O[C@H](COP(=O)(O)O)[C@@H](O)[C@H]2O)c(=O)[nH]1` [GMP]?
uricosuric effect / uric acid levels in the blood [3]: raised uric acid levels in the blood; abilities to increase uric acid levels [3]: equivalent; increasing blood uric acid levels [3]: more effective than DNA and RNA

Which “uricosuric effect / uric acid levels in the blood” value [3] does the source give for `Nc1ncnc2nc[nH]c12` [adenine] here?
Its value is “raised uric acid levels in the blood”.

What about the toxicity [4] of the same compound?
The toxicity was “can crystallize to form kidney stones”.

With `Nc1nc2nc[nH]c2c(=O)[nH]1` [guanine] as the compound, how does the “uricosuric effect / uric acid levels in the blood” value [3] read?
The value was “ineffective”.

Which “abilities to increase uric acid levels” value [3] does the source give for `Nc1nc2c(ncn2[C@@H]2O[C@H](CO)[C@@H](O)[C@H]2O)c(=O)[nH]1` [guanosine] here?
Its value is “equivalent”.

Which results are given for `O=c1[nH]cnc2nc[nH]c12` [hypoxanthine]?
uricosuric effect / uric acid levels in the blood [3]: raised uric acid levels in the blood; effectiveness as precursor of uric acid ([3]; overall, of AMP, GMP and hypoxanthine): most effective precursor of uric acid

With `OC[C@H]1O[C@@H](n2cnc3c(O)ncnc32)[C@H](O)[C@@H]1O` [inosine] as the compound, how does the “abilities to increase uric acid levels” value [3] read?
Its value is “equivalent”.

What does the source list for `O=c1[nH]c(=O)c2[nH]c(=O)[nH]c2[nH]1` [uric acid]?
inhibition of the oxidative reaction of peroxynitrite and luminol (chemiluminescence) ([2]; uric acid 10 µM, peroxynitrite 10 µM): about 99%; survival [5]: long time survival; solubility in water [6]: highly insoluble in water

With `O=c1[nH]c(=O)c2[nH]cnc2[nH]1` [xanthine] as the compound, how does the “uricosuric effect / uric acid levels in the blood” value [3] read?
The value was “ineffective”.

What does the source list for (-) epicatechin gallate?
inhibition of SIN-1 activated luminol light [1, 7]: about 50%; inhibition of SIN-1 activated luminol light ([1]; 1:1000 dilution (stock 0.45 mMolar), listed as epicatechin gallate (-)): 60%; inhibition of light, peroxynitrite as activator of luminol light ([2]; 1:10 dilution): 100%; inhibition of peroxynitrite-based luminol light [2]: about 50%; inhibition of light production, peroxynitrite as activator of luminol light ([2]; consecutive 10 fold dilution after 1:10): about 25%; relative antioxidant activity among the catechins tested [2]: second most active antioxidant

Which “inhibition of SIN-1 activated luminol light” value ([1]; 1:10 dilution) does the source give for (-) epigallocatechin gallate here?
Its value is 100%.

What about the “effect on light from SIN-1” value [1, 8] of the same compound?
Its value is “stimulation of light”.

What about the “inhibition of SIN-1 activated luminol light” value ([1]; full strength) of the same compound?
The value was 100%.

What about the “effect on SIN-1 activated luminol light” value ([1]; further dilution beyond 1:10) of the same compound?
Its value is “stimulate production of light”.

And the “effect on light from peroxynitrite” value [2, 8]?
The value was “stimulation of light”.

And the “pattern with peroxynitrite based light compared with SIN-1 activated light” value ([2]; full strength and 10 fold dilutions)?
The value was “same pattern of behavior”.

And the “relative antioxidant activity among the catechins tested” value [2]?
The value was “weakest antioxidant tested”.

— EP1100507B1, “USE OF A COMBINATION COMPRISING A PRECURSOR OF URIC ACID AND ANTIOXIDANT FOR THE TREATMENT OF NEURODEGENERATIVE DESEASES” (Sacks, Meir S., priority 1998, dated 2000)
